# Assay results reported in EP2776398B1, “SUBSTITUTED PYRAZOLYL-BASED UREA DERIVATIVES AS VANILLOID RECEPTOR LIGANDS” (Medifron DBT Inc., priority 2011, dated 2013).
# Target: T1, vanilloid receptor 1 (VR1/TRPV1 receptor) (Homo sapiens, UniProt Q8NER1)
# T1 construct: expressed in transfected cells; host or cells: CHO K1 cells (ECACC), stably transfected
# Assay: Functional testing on vanilloid receptor 1: FLIPR Ca2+ influx assay against capsaicin (Cap) in transfected CHO K1 cells (pharmacological method II)
# Assay type: cell-based
# Set-up: key to (f) Ki (human being) [nM] Cap: agonist classification: AG = agonist
# Conditions: @ 5µM; human VR1 in CHO K1 cells; capsaicin; relative to maximum inhibition with 10 µM capsazepine; read-out: inhibition (as a percentage), printed in column (f) Ki (human being) [nM] Cap
# Source text: […]
# T1 sequence (Q8NER1 whole entry): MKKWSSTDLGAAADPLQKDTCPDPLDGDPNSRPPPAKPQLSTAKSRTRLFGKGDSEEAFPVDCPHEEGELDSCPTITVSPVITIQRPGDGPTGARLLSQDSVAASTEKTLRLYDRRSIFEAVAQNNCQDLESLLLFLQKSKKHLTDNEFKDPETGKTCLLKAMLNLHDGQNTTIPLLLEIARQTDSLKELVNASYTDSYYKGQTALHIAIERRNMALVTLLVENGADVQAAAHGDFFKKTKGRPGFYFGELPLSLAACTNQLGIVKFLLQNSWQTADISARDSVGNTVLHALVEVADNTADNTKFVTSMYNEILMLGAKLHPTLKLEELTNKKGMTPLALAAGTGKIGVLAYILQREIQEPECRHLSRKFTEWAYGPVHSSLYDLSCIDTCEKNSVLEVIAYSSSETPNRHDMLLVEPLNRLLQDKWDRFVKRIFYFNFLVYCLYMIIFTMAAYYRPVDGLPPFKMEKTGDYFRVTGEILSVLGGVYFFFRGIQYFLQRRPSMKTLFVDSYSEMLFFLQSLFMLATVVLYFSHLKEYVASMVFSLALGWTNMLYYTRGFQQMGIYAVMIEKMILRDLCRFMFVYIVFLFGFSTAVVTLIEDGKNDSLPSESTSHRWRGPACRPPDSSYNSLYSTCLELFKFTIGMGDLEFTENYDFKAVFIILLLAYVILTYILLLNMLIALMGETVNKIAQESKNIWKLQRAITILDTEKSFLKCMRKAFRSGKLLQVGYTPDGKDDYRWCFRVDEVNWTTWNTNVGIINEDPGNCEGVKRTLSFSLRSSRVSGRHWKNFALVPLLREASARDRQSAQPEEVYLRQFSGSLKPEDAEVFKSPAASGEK
row,inhibition at 5 µM,Structure (SMILES)
1,24%,"CC(C)(C)c1cc(CNC(=O)Nc2ccc(C(O)(CO)CO)cc2)n(-c2cccc(Cl)c2)n1 [A159, 1-[[5-tert-Butyl-2-(3-chlorophenyl)-2H-pyrazol-3-yl]-methyl]-3-[4-[1,2-dihydroxy-1-(hydroxymethyl)-ethyl]-phenyl]-urea]"

# Same assay, conditions: human VR1 in CHO K1 cells; AG printed instead of a Ki
row,(f) Ki (human being) [nM] Cap: agonist classification,Structure (SMILES)
1,AG,"CC(C)(C)c1cc(CNC(=O)Nc2ccc(OCC(O)CO)c(F)c2)n(-c2cccc(Cl)c2)n1 (stereo not drawn) [A24, 1-[[5-tert-Butyl-2-(3-chlorophenyl)-2H-pyrazol-3-yl]-methyl]-3-[4-(2,3-dihydroxy-propoxy)-3-fluoro-phenyl]-urea]"

# Same assay, conditions: read-out: (f) Ki (human being) [nM] Cap
row,Structure (SMILES),Ki
1,"Cc1cc(F)cc(-n2nc(C(F)(F)F)cc2CNC(=O)Nc2ccc(CO)c(F)c2)c1 [A77, 1-[3-Fluoro-4-(hydroxymethyl)-phenyl]-3-[[2-(3-fluoro-5-methyl-phenyl)-5-(trifluoromethyl)-2H-pyrazol-3-yl]-methyl]-urea]",19 nM
2,"COc1cc(C(C)C(=O)NCc2cc(C(F)(F)F)nn2-c2cccc(Cl)c2)ccc1CO (stereo not drawn) [A50, N-[[2-(3-Chlorophenyl)-5-(trifluoromethyl)-2H-pyrazol-3-yl]-methyl]-2-[4-(hydroxymethyl)-3-methoxy-phenyl]-propionamide]",1 nM
3,"COCc1cccc(-n2nc(C(F)(F)F)cc2CNC(=O)Nc2ccc(CO)c(F)c2)c1 [A84, 1-[3-Fluoro-4-(hydroxymethyl)-phenyl]-3-[[2-[3-(methoxymethyl)-phenyl]-5-(trifluoromethyl)-2H-pyrazol-3-yl]-methyl]-urea]",53 nM
4,"COc1c(F)cc(C(C)C(=O)NCc2cc(C(C)(C)C)nn2-c2cccc(Cl)c2)cc1F (stereo not drawn) [A4, N-[[5-tert-Butyl-2-(3-chlorophenyl)-2H-pyrazol-3-yl]-methyl]-2-(3,5-difluoro-4-methoxy-phenyl)-propionamide]",2 nM
5,"O=C(NCc1cc(C2CC2)nn1-c1cccc(Cl)c1)Nc1ccc(CO)c(F)c1 [A53, 1-[[2-(3-Chlorophenyl)-5-cyclopropyl-2H-pyrazol-3-yl]-methyl]-3-[3-fluoro-4-(hydroxymethyl)-phenyl]-urea]",18 nM
6,"O=C(NCc1cc(C(F)(F)F)nn1-c1ccccc1)Nc1ccc(CO)c(F)c1 [A58, 1-[3-Fluoro-4-(hydroxymethyl)-phenyl]-3-[[2-phenyl-5-(trifluoromethyl)-2H-pyrazol-3-yl]-methyl]-urea]",6 nM
7,"COc1c(F)cc(C(C)C(=O)NCc2cc(C(F)(F)F)nn2-c2ccc(F)c(Cl)c2)cc1F (stereo not drawn) [A9, N-[[2-(3-Chloro-4-fluoro-phenyl)-5-(trifluoromethyl)-2H-pyrazol-3-yl]-methyl]-2-(3,5-difluoro-4-methoxy-phenyl)-propionamide]",7 nM
8,"CC(C(=O)NCc1cc(C(C)(C)C)nn1-c1cccc(Cl)c1)c1ccc(C2(O)CC2)c(F)c1 (stereo not drawn) [A100, N-[[5-tert-Butyl-2-(3-chlorophenyl)-2H-pyrazol-3-yl]-methyl]-2-[3-fluoro-4-(1-hydroxy-cyclopropyl)-phenyl]-propionamide]",0.7 nM
9,"Cc1cc(-n2nc(C(F)(F)F)cc2CNC(=O)Nc2ccc(CO)c(F)c2)ccc1C#N [A81, 1-[[2-(4-Cyano-3-methyl-phenyl)-5-(trifluoromethyl)-2H-pyrazol-3-yl]-methyl]-3-[3-fluoro-4-(hydroxymethyl)-phenyl]-urea]",21 nM
10,"COc1c(Cl)cccc1-n1nc(C(F)(F)F)cc1CNC(=O)Nc1ccc(CO)c(F)c1 [A90, 1-[[2-(3-Chloro-2-methoxy-phenyl)-5-(trifluoromethyl)-2H-pyrazol-3-yl]-methyl]-3-[3-fluoro-4-(hydroxymethyl)-phenyl]-urea]",27 nM
11,"CC(C)(C)c1cc(CNC(=O)Cc2ccc(CO)c(F)c2)n(-c2cccc(Cl)c2)n1 [A29, N-[[5-tert-Butyl-2-(3-chlorophenyl)-2H-pyrazol-3-yl]-methyl]-2-[3-fluoro-4-(hydroxymethyl)-phenyl]-acetamide]",1 nM
12,"COc1cc(C)cc(-n2nc(C(F)(F)F)cc2CNC(=O)Nc2ccc(CO)c(F)c2)c1 [A92, 1-[3-Fluoro-4-(hydroxymethyl)-phenyl]-3-[[2-(3-methoxy-5-methyl-phenyl)-5-(trifluoromethyl)-2H-pyrazol-3-yl]-methyl]-urea]",19 nM
13,"Cc1cc(C)cc(-n2nc(C(F)(F)F)cc2CNC(=O)Nc2ccc(CO)c(F)c2)c1 [A73, 1-[[2-(3,5-Dimethyl-phenyl)-5-(trifluoromethyl)-2H-pyrazol-3-yl]-methyl]-3-[3-fluoro-4-(hydroxymethyl)-phenyl]-urea]",27 nM
14,"O=C(NCc1cc(C(F)(F)F)nn1-c1cccc(Cl)c1Cl)Nc1ccc(CO)c(F)c1 [A89, 1-[[2-(2,3-Dichloro-phenyl)-5-(trifluoromethyl)-2H-pyrazol-3-yl]-methyl]-3-[3-fluoro-4-(hydroxymethyl)-phenyl]-urea]",45 nM
15,"Cc1cccc(-n2nc(C(F)(F)F)cc2CNC(=O)Nc2ccc(CO)c(F)c2)c1 [A70, 1-[3-Fluoro-4-(hydroxymethyl)-phenyl]-3-[[2-(m-tolyl)-5-(trifluoromethyl)-2H-pyrazol-3-yl]-methyl]-urea]",9 nM

# More lines, now with the values ahead:
row,Ki,Structure (SMILES)
1,26 nM,"O=C(NCc1cc(C(F)(F)F)nn1-c1cccc(Cl)c1)Nc1ccc(CCO)c(F)c1 [A141, 1-[[2-(3-Chlorophenyl)-5-(trifluoromethyl)-2H-pyrazol-3-yl]-methyl]-3-[3-fluoro-4-(2-hydroxy-ethyl)-phenyl]-urea]"
2,40 nM,"O=C(NCc1cc(C(F)(F)F)nn1-c1cccc(Cl)c1)Nc1ccc(COCCO)c(F)c1 [A127, 1-[[2-(3-Chlorophenyl)-5-(trifluoromethyl)-2H-pyrazol-3-yl]-methyl]-3-[3-fluoro-4-(2-hydroxy-ethoxy-methyl)-phenyl]-urea]"
3,56 nM,"O=C(NCc1cc(C(F)(F)F)nn1-c1cccc(F)c1)Nc1ccc(COCCO)c(F)c1 [A131, 1-[3-Fluoro-4-(2-hydroxy-ethoxy-methyl)-phenyl]-3-[[2-(3-fluorophenyl)-5-(trifluoromethyl)-2H-pyrazol-3-yl]-methyl]-urea]"
4,47 nM,"O=C(NCc1cc(C(F)(F)F)nn1-c1ccc(F)c(Cl)c1)Nc1ccc(COCCO)c(F)c1 [A130, 1-[[2-(3-Chloro-4-fluoro-phenyl)-5-(trifluoromethyl)-2H-pyrazol-3-yl]-methyl]-3-[3-fluoro-4-(2-hydroxy-ethoxy-methyl)-phenyl]-urea]"
5,15 nM,"CC(C(=O)NCc1cc(C(F)(F)F)nn1-c1cccc(F)c1)c1ccc(C2(O)CC2)c(F)c1 (stereo not drawn) [A102, 2-[3-Fluoro-4-(1-hydroxy-cyclopropyl)-phenyl]-N-[[2-(3-fluorophenyl)-5-(trifluoromethyl)-2H-pyrazol-3-yl]-methyl]-propionamide]"
6,15 nM,"CC(C(=O)NCc1cc(C(C)(C)C)nn1-c1cccc(OC(F)(F)F)c1)c1ccc(COCCO)c(F)c1 (stereo not drawn) [A125, N-[[5-tert-Butyl-2-[3-(trifluoromethyloxy)-phenyl]-2H-pyrazol-3-yl]-methyl]-2-[3-fluoro-4-(2-hydroxy-ethoxy-methyl)-phenyl]-propionamide]"
7,4 nM,"CC(C(=O)NCc1cc(C(F)(F)F)nn1-c1cccc(Cl)c1)c1ccc(C2(O)CC2)c(F)c1 (stereo not drawn) [A101, N-[[2-(3-Chlorophenyl)-5-(trifluoromethyl)-2H-pyrazol-3-yl]-methyl]-2-[3-fluoro-4-(1-hydroxy-cyclopropyl)-phenyl]-propionamide]"
